Test results from patent publication US12351569B2, “ALDH-2 inhibitor compounds and methods of use” (Amygdala Neurosciences, Inc., priority 2022, dated 2025).
pIC50: −log10 of the molar value.

Columns and labels:
[1] = molecular target: T1, recombinant human ALDH-2 (Homo sapiens, UniProt P05091); assay: ALDH-2 inhibition assay; format: biochemical; details: 60 min pre-incubation; 10 μM = highest concentration tested; read-out: Enzymatic Assays IC50 ALDH2
T1 sequence (P05091 18-517): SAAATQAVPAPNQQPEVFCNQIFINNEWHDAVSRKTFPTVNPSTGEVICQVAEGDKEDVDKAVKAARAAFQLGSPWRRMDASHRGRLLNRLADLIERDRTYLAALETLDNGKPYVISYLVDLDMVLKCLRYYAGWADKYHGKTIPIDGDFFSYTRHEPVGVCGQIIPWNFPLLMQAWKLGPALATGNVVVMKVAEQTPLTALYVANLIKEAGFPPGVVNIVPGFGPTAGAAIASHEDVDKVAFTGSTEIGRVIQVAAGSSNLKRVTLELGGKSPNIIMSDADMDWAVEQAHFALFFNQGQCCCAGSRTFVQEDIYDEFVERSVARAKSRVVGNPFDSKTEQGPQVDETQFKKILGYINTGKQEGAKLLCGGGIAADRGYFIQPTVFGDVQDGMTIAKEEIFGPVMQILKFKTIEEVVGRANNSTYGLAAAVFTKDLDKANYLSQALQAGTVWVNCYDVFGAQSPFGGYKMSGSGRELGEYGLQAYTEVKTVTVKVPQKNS
Protocol: A. ALDH-2 inhibition assay: The ALDH-2 reaction mixture used in the assay contained 125 μM formaldehyde, 75 μM NAD+, 20 mM NaCl, 10 mM MgCl2, and 20 nM recombinant human ALDH-2 in 50 mM Hepes buffer, pH 7.5 in a final volume of 10 μL using 384-well Corning 3820 plates. After 60 min of pre-incubation of the test ALDH-2 inhibitor compound with ALDH-2, the reaction was started by adding NAD+ and formaldehyde and the assay reaction mixture was allowed to proceed for 60 minutes. Activity of the ALDH-2 enzyme was determined by monitoring NADH formation using Perkin-Elmer Envision Reader with excitation and emission wavelengths set at 340 and 460 nm, respectively.

[2] = molecular target: T2, recombinant human ALDH-1 (Homo sapiens, UniProt P00352); assay: ALDH-1 inhibition assay; format: biochemical; details: 60 min pre-incubation; 10 μM = highest concentration tested; read-out: Enzymatic Assays IC50 ALDH1
T2 sequence (P00352 1-501): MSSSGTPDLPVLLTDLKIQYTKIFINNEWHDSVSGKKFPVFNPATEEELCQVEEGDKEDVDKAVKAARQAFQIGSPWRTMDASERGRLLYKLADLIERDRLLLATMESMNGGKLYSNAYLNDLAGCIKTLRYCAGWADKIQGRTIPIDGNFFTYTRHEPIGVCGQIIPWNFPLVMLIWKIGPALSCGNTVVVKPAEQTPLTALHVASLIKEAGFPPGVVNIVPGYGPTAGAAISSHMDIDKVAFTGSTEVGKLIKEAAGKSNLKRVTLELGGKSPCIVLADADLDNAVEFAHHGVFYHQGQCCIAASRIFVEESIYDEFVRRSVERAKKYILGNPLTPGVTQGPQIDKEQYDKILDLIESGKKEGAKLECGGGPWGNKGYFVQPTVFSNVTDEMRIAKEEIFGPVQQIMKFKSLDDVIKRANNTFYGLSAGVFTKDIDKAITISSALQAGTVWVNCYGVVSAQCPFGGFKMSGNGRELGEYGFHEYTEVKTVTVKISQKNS
Protocol: B. ALDH-1 inhibition assay: The ALDH-1 reaction mixture used in the assay contained 100 μM formaldehyde, 2.5 mM NAD+, 20 mM NaCl, 10 mM MgCl2, 1 mM dithiothreitol (DTT; reducing agent), and 50 nM recombinant human ALDH-1 in 50 mM Hepes buffer, pH 7.5 in a final volume of 10 μL using 384-well Corning 3820 plates. After 60 min of pre-incubation of the test ALDH-2 inhibitor compound with ALDH-1, the reaction was started by adding NAD+ and formaldehyde and the assay reaction mixture was allowed to proceed for 60 minutes. Activity of the ALDH-1 enzyme was determined by monitoring NADH formation using Perkin-Elmer Envision Reader with excitation and emission wavelengths set at 340 and 460 nm, respectively.

[3] = molecular target: T3, MAO-A (Homo sapiens, UniProt P21397); assay: MAO-A inhibition assay (luminogenic substrate); format: biochemical; details: 20 min pre-incubation; 10 μM = highest concentration tested; read-out: Enzymatic Assays IC50 MAO-A
T3 sequence (P21397 1-527): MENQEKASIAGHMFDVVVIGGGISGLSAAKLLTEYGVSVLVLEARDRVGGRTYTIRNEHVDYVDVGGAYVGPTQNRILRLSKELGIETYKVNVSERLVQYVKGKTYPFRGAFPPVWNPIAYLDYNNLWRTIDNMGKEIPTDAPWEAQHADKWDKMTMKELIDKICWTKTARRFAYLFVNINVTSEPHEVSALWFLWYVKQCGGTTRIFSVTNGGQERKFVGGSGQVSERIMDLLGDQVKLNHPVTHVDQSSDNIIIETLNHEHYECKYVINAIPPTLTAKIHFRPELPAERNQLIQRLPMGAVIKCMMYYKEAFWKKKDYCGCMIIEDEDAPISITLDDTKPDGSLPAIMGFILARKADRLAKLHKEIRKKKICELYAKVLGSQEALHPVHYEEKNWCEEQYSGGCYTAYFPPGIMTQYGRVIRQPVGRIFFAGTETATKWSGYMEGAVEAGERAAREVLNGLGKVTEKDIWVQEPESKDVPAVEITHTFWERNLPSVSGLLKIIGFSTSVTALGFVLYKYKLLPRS
Protocol: (§1) D. MAO-A and MAO-B inhibition assays: MAO assays included luminogenic MAO substrate, reaction buffers, Luciferin Detection, and a reconstitution buffer with esterase. The MAO reaction mixture used in the assay included microsome contained MAO-A (2 μg) or MAO-B (10 μg), 160 μM substrate for MAO-A or 16 μM substrate for MAO-B, MAO-A buffer (100 mM Hepes buffer, pH 7.5, 5% glycerol) or MAO-B buffer (100 mM Hepes, pH 7.5, 5% glycerol, 10% dimethyl sulfoxide) in a final volume of 30 μL. After 20 minutes of pre-incubation of the MAO-A or MAO-B enzyme with the test ALDH-2 inhibitor compound, the reaction was initiated by adding enzyme substrate and the […] reaction was allowed to proceed for 60 minutes. Reconstituted Luciferin Detection Reagent (30 μL) was then added is added to simultaneously stop the MAO reaction and convert the methyl ester derivative to luciferin and produce light. The amount of light produced is directly proportional to the activity of MAO. The mixtures were further incubated for 20 minutes and activity of the enzyme was determined using Perkin-Elmer Envision Reader.

[4] = molecular target: T4, MAO-B (Homo sapiens, UniProt P27338); assay: MAO-B inhibition assay (luminogenic substrate); format: biochemical; details: 20 min pre-incubation; 10 μM = highest concentration tested; read-out: Enzymatic Assays IC50 MAO-B
T4 sequence (P27338 1-520): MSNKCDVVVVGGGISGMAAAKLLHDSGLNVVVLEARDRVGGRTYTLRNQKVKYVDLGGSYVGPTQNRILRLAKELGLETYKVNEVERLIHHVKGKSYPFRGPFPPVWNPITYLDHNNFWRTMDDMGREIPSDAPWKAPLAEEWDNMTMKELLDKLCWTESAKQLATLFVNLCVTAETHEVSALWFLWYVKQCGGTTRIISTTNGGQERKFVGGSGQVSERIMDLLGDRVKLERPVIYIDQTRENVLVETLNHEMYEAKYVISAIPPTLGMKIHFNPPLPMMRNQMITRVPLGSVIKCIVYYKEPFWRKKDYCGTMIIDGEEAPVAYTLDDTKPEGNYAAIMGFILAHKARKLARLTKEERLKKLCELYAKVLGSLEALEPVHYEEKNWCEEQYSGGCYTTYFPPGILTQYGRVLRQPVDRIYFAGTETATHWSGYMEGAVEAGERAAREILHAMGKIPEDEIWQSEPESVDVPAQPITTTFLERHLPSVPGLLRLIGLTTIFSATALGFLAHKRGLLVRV
Protocol: as §1

[5] = tested on: HepaRG spheroids; assay: HepaRG 3D spheroid assay (hepatotoxic liability); format: cell-based; details: minimum effective concentration crossing vehicle control threshold of cell health marker; dosed days 1, 4, 7, 10, 13; 100 μM = highest concentration tested
Excerpt: See e.g., Walker et al., “The evolution of strategies to minimise the risk of human drug-induced liver injury (DILI) in drug discovery and development,” (2020) Archives of Toxicology, Vol. 94: 2559-2585, which is hereby incorporated by reference herein in its entirety. […] In applying the HepaRG spheroid assay analysis to determining the hepatoxic liability of ALDH-2 inhibitor compounds, consideration is made of the binding to plasma protein and the limitations to CNS penetration due to the blood-brain barrier.
E. HepaRG® 3D spheroid assay: The HepaRG 3D spheroid assay is described in Walker et al., “The evolution of strategies to minimise the risk of human drug-induced liver injury (DILI) in drug discovery and development,” (2020) Archives of Toxicology, Vol. 94: 2559-2585. Briefly, HepaRG® cells were seeded into ultra-low adhesion 96-well black walled clear bottomed spheroid microplates. […] At the end of the incubation period, the spheroids were loaded with the relevant dye/antibody for each cell health marker (spheroid count, spheroid size, DNA structure, mitochondrial mass, mitochondrial membrane potential, oxidative stress, glutathione content, and cellular ATP). The plates were then scanned using an automated fluorescent cellular imager, ArrayScan® (Thermo Scientific Cellomics).

In the case of `Cc1nccc(Cl)c1C(=O)NCc1ccc(N2CCNC(=O)C2)nc1` [(1c), 4-Chloro-2-methyl-N-((6-(3-oxopiperazin-1-yl)pyridin-3-yl)methyl)nicotinamide], the pIC50 [1] was 7.46, the pIC50 [2] was under 5.00 and the pIC50 [3] was under 5.00. For the same molecule, the pIC50 [4] was under 5.00 and the “HepaRG 3D Spheroid MEC” value [5] was “No Effect”.
Molecule `O=C1CN(c2ccc(CNC(=O)c3c(Cl)cccc3Cl)cn2)CCN1` [(1d), 2,6-Dichloro-N-((6-(3-oxopiperazin-1-yl)pyridin-3-yl)methyl)benzamide] has a pIC50 [1] of 8.10, a pIC50 [2] of under 5.00 and a pIC50 [3] of under 5.00. The pIC50 [4] was under 5.00 and the “HepaRG 3D Spheroid MEC” value [5] was 29.4 µM.
For `Cc1cccc(Cl)c1C(=O)NCc1ccc(N2CCNC(=O)C2)nc1` [(1a), 2-chloro-6-methyl-N-((6-(3-oxopiperazin-1-yl)pyridin-3-yl)methyl)benzamide], the pIC50 [1] was 7.92, the pIC50 [2] was under 5.00 and the pIC50 [3] was under 5.00. The pIC50 [4] was under 5.00 and the “HepaRG 3D Spheroid MEC” value [5] was 54.1 µM.
For `O=C1CN(c2ccc(CNC(=O)c3ccccc3Cl)cn2)CCN1` [(1b), 2-Chloro-N-((6-(3-oxopiperazin-1-yl)pyridin-3-yl)methyl)benzamide], the pIC50 [1] was 7.24, the pIC50 [2] was under 5.00 and the pIC50 [3] was under 5.00. The pIC50 [4] was under 5.00 and the “HepaRG 3D Spheroid MEC” value [5] was “No Effect”.
